These results are taken from ChEMBL document CHEMBL5370688, “Development of HC-258, a Covalent Acrylamide TEAD Inhibitor That Reduces Gene Expression and Cell Migration” (ACS Med Chem Lett, 2023).

The structures appear in SMILES notation. The source made the active and inactive calls. No cut-off for these calls is given here. Some results are limits rather than exact numbers.

Experiment [1] addresses Transcriptional enhancer factor TEF-3 (Homo sapiens) (UniProt Q15561). The experiment in a line: Displacement of bodipy-PA from TEAD4 (unknown origin) measured after 30 mins by FP assay.
Experiment [2] concerns MDA-MB-231. Nature of the experiment: Cytotoxicity against human MDA-MB-231 cells at 10 uM. It is filed as functional, cell-based.
In experiment [3] the target is Transcriptional enhancer factor TEF-3 (Homo sapiens) (UniProt Q15561). Nature of the experiment: Binding affinity to TEAD4 (unknown origin) assessed as covalent adduct formation at 0.3 mM incubated for 2 hrs by Agilent LC/MSD Time-of-Flight Mass Spectrometric analysis.
Sequence of Transcriptional enhancer factor TEF-3 (Homo sapiens) (Q15561 whole entry): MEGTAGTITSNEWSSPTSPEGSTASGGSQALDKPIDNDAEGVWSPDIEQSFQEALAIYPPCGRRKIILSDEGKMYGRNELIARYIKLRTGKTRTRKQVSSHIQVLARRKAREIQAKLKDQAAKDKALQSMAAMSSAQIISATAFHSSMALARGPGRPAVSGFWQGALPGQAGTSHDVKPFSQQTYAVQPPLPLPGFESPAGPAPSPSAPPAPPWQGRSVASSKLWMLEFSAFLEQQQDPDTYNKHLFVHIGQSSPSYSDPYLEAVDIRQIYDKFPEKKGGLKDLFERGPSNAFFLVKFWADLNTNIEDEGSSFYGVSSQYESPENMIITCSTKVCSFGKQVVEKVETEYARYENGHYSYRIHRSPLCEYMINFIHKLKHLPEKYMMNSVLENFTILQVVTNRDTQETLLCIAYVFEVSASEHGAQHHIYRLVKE
The subject of experiment [4] is MDA-MB-231. Nature of the experiment: Inhibition of TEAD in human MDA-MB-231 cells assessed as reduction in CTGF gene expression level at 10 uM measured after 48 hrs by SYBR green staining based RT-qPCR analysis. The class given is cell-based.
In experiment [5] the test system is MDA-MB-231. Nature of the experiment: Inhibition of TEAD in human MDA-MB-231 cells assessed as reduction in NF2 gene expression level at 10 uM measured after 48 hrs by SYBR green staining based RT-qPCR analysis. The class given is cell-based.
Experiment [6] relates to MDA-MB-231. The experiment in a line: Inhibition of TEAD in human MDA-MB-231 cells assessed as reduction in Cyr61 gene expression level at 10 uM measured after 48 hrs by SYBR green staining based RT-qPCR analysis. It is filed as cell-based.
Experiment [7] relates to MDA-MB-231. The experiment in a line: Inhibition of TEAD in human MDA-MB-231 cells assessed as reduction in AXL gene expression level at 10 uM measured after 48 hrs by SYBR green staining based RT-qPCR analysis. It is filed as cell-based.
Experiment [8] deals with MDA-MB-231. The experiment in a line: Inhibition of cell migration in human MDA-MB-231 cells at 10 uM incubated for 48 hrs by xCELLigence RTCA system analysis. The class given is functional, cell-based.
The target of experiment [9] is Transcriptional enhancer factor TEF-3 (Homo sapiens) (UniProt Q15561). The experiment in a line: Binding affinity to TEAD4 (unknown origin) assessed as change in aggregation temperature at 25 uM by DSLS thermal shift assay.
The test system of experiment [10] is YAP1-TEAD1 (Homo sapiens). The experiment in a line: Inhibition of C-terminal NanoLuc-tagged TEAD1 (unknown origin)/C-terminal Halo-Tagged YAP1 (unknown origin) protein-protein interaction transfected in HEK293T cells at 10 uM using Nano-Glo as substrate pre incubated for 4 hrs followed by substrate addition and measured within 10 mins by NanoBRET …. To be noted: time 250.0 min.

Experiment [11] concerns the target Transcriptional enhancer factor TEF-3 (Homo sapiens) (UniProt Q15561). Nature of the experiment: Binding affinity to TEAD4 (unknown origin) assessed as partial covalent adduct formation at 0.3 mM incubated for 2 hrs by Agilent LC/MSD Time-of-Flight Mass Spectrometric analysis.
For experiment [12] the target is unchanged. Nature of the experiment: Displacement of bodipy-PA from TEAD4 (unknown origin) measured after 30 mins by FP assay relative to control.

Consider `CCCCCOc1cccc(Nc2cccc(NC(=O)CCl)c2)c1`, for which, in experiment [1], the K was 3.1 µM. In the experiment with MDA-MB-231 [2], the outcome was inactive. Further, in [3], the result was Active.

`CCCCCOc1cccc(Nc2cccc(NC(C)=O)c2)c1`: the inhibition result (with MDA-MB-231 [4]; with MDA-MB-231 [5]; with MDA-MB-231 [6]; in the experiment on MDA-MB-231 [7]; with MDA-MB-231 [8]; in experiment [10]) was “inactive” in each case. Moreover, the K in experiment [1] was greater than 25 µM. The outcome (in the experiment on MDA-MB-231 [2]; in experiment [3]) was inactive. Also, the deltaT in experiment [9] was 2.5 °C.

Take `CCCCCCc1cccc(Nc2cccc(NC(=O)C3CC3)c2)c1`: in experiment [3], the result was inactive.

`C=CC(=O)Nc1cccc(Nc2cccc(OCCCCC)c2)c1`: the inhibition entry in the experiment with MDA-MB-231 [4], with MDA-MB-231 [5], with MDA-MB-231 [6], with MDA-MB-231 [7] and in the experiment with MDA-MB-231 [8] was “Active” throughout. Moreover, the K in experiment [1] was determined as 3.6 µM. Besides, the outcome with MDA-MB-231 [2] was inactive. For the same compound, the result in experiment [3] was Active. In addition, in experiment [10], the inhibition entry was “inactive”.

`C=CC(=O)Nc1cccc(Nc2cccc(CCCCCC)c2)c1`: the inhibition entry in the experiment on MDA-MB-231 [4], in the experiment on MDA-MB-231 [5], in the experiment with MDA-MB-231 [6] and in the experiment on MDA-MB-231 [7] was “Active” in each case. The K in experiment [1] worked out at 1.3 µM. Further, the outcome (in the experiment with MDA-MB-231 [2]; in [3]) was Active.

As to `C=CC(=O)Nc1ccccc1Nc1cccc(OCCCCC)c1`, the inhibition result in the experiment on MDA-MB-231 [4], in the experiment with MDA-MB-231 [5], in the experiment on MDA-MB-231 [6], in the experiment on MDA-MB-231 [7] and in the experiment with MDA-MB-231 [8] was “Active” throughout. Besides, the K in [1] is greater than 20 µM. In addition, the result in the experiment with MDA-MB-231 [2] was inactive. In experiment [11], the result was Active.

Consider `O=C(O)c1ccccc1Nc1cccc(C(F)(F)F)c1`, for which the inhibition result in the experiment with MDA-MB-231 [8] is “inactive”.

As to `CCCCCCc1cccc(Nc2cccc(NC(=O)CCl)c2)c1`, the inhibition entry in the experiment on MDA-MB-231 [4] and in the experiment with MDA-MB-231 [6] was “Active” in each case. Besides, the inhibition result in the experiment on MDA-MB-231 [5] and with MDA-MB-231 [7] was “inactive” throughout. Also, the K in [1] is 1 µM. Besides, in the experiment on MDA-MB-231 [2], the outcome was inactive. Moreover, the outcome in experiment [3] was Active.

For the compound `CCCCCCc1cccc(Nc2ccccc2NC(=O)C=C(C)C)c1`, the result in experiment [3] was inactive.

`CCCCCCc1cccc(Nc2cccc(NC(=O)C=C(C)C)c2)c1`: the result in experiment [3] was inactive.

For `CCCCCCc1cccc(Nc2ccccc2NC(=O)CCl)c1`, the inhibition in experiment [12] came out at 80%. The K in experiment [1] is 2.3 µM. Further, in [3], the outcome was Active.

For `C=CC(=O)Nc1ccccc1Nc1cccc(CCCCCC)c1`, the inhibition result in the experiment with MDA-MB-231 [4], in the experiment on MDA-MB-231 [5], with MDA-MB-231 [6] and with MDA-MB-231 [7] was “Active” in each case. For the same compound, the K in [1] was 2.7 µM. Besides, the result (in the experiment on MDA-MB-231 [2]; in experiment [11]) was Active.
